From patent US10420831B2, “Inactivation of viruses by delipidation” (priority 2016, dated 2019)

Test system: human influenza virus H1N1 A/WSN/33 strain
Assay: Hemagglutination (HA) activity of treated IFV with chicken red blood cells
Details: 50 mM MBCD
Method: Hemagglutination (HA) activity is determined as follows. Freshly isolated chicken blood is washed three times with PBS, and the red blood cells (RBC) are resuspended in PBS at a concentration of 1%. Virus dilutions (50 μL) are made in PBS and mixed with 50 μL of the RBC suspension. The mixture is added to individual wells in a 96-well plate and the RBC are allowed to settle for 45 minutes. The wells are judged to be HA negative (i.e. no agglutination of RBC) if a dot or pellet of RBC is present, and a well is judged to be positive if a smooth suspension of RBC is present.
In addition to MBCD, another lipid solvent, diisopropyl ether (DIPE) is used to delipidate IFV. […] After a brief centrifugation at 2,000×g for 3 minutes, visible solvent is removed, and the aqueous materials are left to dry in a fume hood for 20 minutes. The samples are then centrifuged at 200,000×g for 30 minutes to recover virus particles.

methyl β-cyclodextrin [MBCD]
HA units (37° C., 30 minutes): 32 HA units
effect on HA activity (in words) (37° C., 30 minutes): same degree as 2%-8% DIPE
effect on HA activity (in words) (45 minutes): not measurably affected
HA units (end-over-end rotation at 37° C. for 45 minutes): 32 HA units
